In ChEMBL document CHEMBL1914439, “Novel 1-alkynyl substituted 1,2-dihydroquinoline derivatives from nimesulide (and their 2-oxo analogues): a new strategy to identify inhibitors of PDE4B” (2011):

Legend:
[1] = target: 3',5'-cyclic-AMP phosphodiesterase 4B (Homo sapiens) (UniProt Q07343); assay: Inhibition of recombinant His-tagged PDE4B expressed in Sf9 cells using cAMP as substrate at 30 uM preincubated for 15 mins measured after 1 hr by multilabel plate reader
[2] = target: 3',5'-cyclic-AMP phosphodiesterase 4B (Homo sapiens) (UniProt Q07343); assay: Inhibition of recombinant His-tagged PDE4B expressed in Sf9 cells using cAMP as substrate at 3 uM preincubated for 15 mins measured after 1 hr by multilabel plate reader
[3] = tested on: RAW264.7; assay: Antiinflammatory activity in mouse RAW264.7 cells assessed as inhibition of LPS-induced TNFalpha challenge at 10 uM preincubated for 30 mins before LPS challenge by ELISA; format: functional
[4] = target: 3',5'-cyclic-AMP phosphodiesterase 4B (Homo sapiens) (UniProt Q07343); assay: Inhibition of recombinant His-tagged PDE4B expressed in Sf9 cells using cAMP as substrate at 0.3 uM preincubated for 15 mins measured after 1 hr by multilabel plate reader
[5] = target: 3',5'-cyclic-AMP phosphodiesterase 4B (Homo sapiens) (UniProt Q07343); assay: Inhibition of recombinant His-tagged PDE4B expressed in Sf9 cells using cAMP as substrate at 10 uM preincubated for 15 mins measured after 1 hr by multilabel plate reader
[6] = tested on: RAW264.7; assay: Antiinflammatory activity in mouse RAW264.7 cells assessed as inhibition of LPS-induced TNFalpha challenge at 30 uM preincubated for 30 mins before LPS challenge by ELISA; format: functional
[7] = target: 3',5'-cyclic-AMP phosphodiesterase 4B (Homo sapiens) (UniProt Q07343); assay: Inhibition of recombinant His-tagged PDE4B expressed in Sf9 cells using cAMP as substrate at 1 uM preincubated for 15 mins measured after 1 hr by multilabel plate reader

Chain of 3',5'-cyclic-AMP phosphodiesterase 4B (Homo sapiens) (Q07343 whole entry): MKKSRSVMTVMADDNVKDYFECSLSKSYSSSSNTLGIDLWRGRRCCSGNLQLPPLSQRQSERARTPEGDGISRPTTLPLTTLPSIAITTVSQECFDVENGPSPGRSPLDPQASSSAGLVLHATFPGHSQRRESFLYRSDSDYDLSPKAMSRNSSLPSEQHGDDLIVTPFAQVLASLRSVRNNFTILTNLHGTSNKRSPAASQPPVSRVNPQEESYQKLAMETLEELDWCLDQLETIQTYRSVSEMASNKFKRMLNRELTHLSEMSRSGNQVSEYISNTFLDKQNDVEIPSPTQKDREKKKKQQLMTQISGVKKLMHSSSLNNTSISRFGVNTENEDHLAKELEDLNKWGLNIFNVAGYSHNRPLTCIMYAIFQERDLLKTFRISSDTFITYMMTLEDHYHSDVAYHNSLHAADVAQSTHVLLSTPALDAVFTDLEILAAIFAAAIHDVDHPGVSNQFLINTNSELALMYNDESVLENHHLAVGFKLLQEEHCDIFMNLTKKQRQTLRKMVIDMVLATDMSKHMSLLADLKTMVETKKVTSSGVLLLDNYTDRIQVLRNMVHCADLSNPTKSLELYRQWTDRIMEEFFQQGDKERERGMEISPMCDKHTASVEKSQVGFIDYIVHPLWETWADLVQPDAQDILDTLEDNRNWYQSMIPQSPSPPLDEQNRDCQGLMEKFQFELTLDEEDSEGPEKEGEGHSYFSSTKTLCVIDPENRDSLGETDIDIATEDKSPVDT

Structure (SMILES) | inhibition [1] | also measured
O=Cc1cc2ccccc2n(CC#Cc2ccccc2Cl)c1=O | 54.4% | 
COC(=O)c1ccccc1C#CCN1c2cc(Oc3ccccc3)c(NS(C)(=O)=O)cc2C(C)=CC1(C)C | 33.1% | inhibition [2]: 16%; inhibition at 10 µM [3]: 35%; inhibition [4]: 10%; inhibition [5]: 23%; inhibition at 30 µM [6]: 47%; inhibition [7]: 11%
CC1=CC(C)(C)N(CC#Cc2ccccc2[N+](=O)[O-])c2cc(Oc3ccccc3)c(NS(C)(=O)=O)cc21 | 37.4% | 
CC1=CC(C)(C)N(CC#Cc2ccc([N+](=O)[O-])cc2)c2cc(Oc3ccccc3)c(NS(C)(=O)=O)cc21 | 35.1% | 
CC1=CC(C)(C)N(CC#Cc2ccccc2Cl)c2cc(Oc3ccccc3)c(NS(C)(=O)=O)cc21 | 40.3% | 
CC1=CC(C)(C)N(CC#Cc2cccc([N+](=O)[O-])c2)c2cc(Oc3ccccc3)c(NS(C)(=O)=O)cc21 | 41.6% | 

Further lines, with some results ahead:

inhibition [1] | Structure (SMILES) | also measured
26.5% | O=Cc1cc2ccccc2n(CC#Cc2ccc(Cl)cc2)c1=O | 
22.6% | O=Cc1cc2ccccc2n(CC#Cc2cccc([N+](=O)[O-])c2)c1=O | 
22.6% | COc1ccc(C#CCn2c(=O)c(C=O)cc3ccccc32)cc1 | 
4.15% | O=Cc1cc2ccccc2n(CC#Cc2ccc([N+](=O)[O-])cc2)c1=O | 
45.5% | Cc1ccccc1C#CCn1c(=O)c(C=O)cc2ccccc21 | 
